Results published in ChEMBL document CHEMBL5543084, “Development of cannabidiol derivatives as potent broad-spectrum antibacterial agents with membrane-disruptive mechanism” (Eur J Med Chem, 2024).
Converted amounts (≈) assume the structure as drawn. The source made the active and inactive calls. The calls are words filed in the database; no cut-off is given here.

Columns and labels:
Staphylococcus aureus [1] = experiment: (§1) Bactericidal activity against methicillin-resistant Staphylococcus aureus NCTC 10442 assessed as change in cell death associated gene expression by measuring down-regulation of biofilm formation plfA (DX983_RS01360) and plfB (DX983_RS01355) gene expression at 4 times of MIC concentration measured after 90 mins incubation by RNA sequencing (RNA-seq) study; format: functional, organism-based
Staphylococcus aureus [2] = experiment: Antibacterial activity against methicillin-resistant Staphylococcus aureus NCTC 10442 assessed as inhibition of bacterial growth incubated for 24 hrs in presence of 4.5 mM K+ by broth dilution method; format: functional
[3] = Cytotoxicity against human HepG2 cells assessed as viable cells at 3.125 microg/ml incubated for 24 hrs by CCK-8 assay; format: toxicity, cell-based; conditions: at 3.125 µg/mL, read-out: Activity
Staphylococcus aureus [4] = experiment: as §1, with “up-regulation” for “down-regulation”, “clfB, DX983_RS14825)” for “biofilm formation plfA (DX983_RS01360)”, “DX983_RS14235” for “plfB (DX983_RS01355)”; format: functional, organism-based
Escherichia coli [5] = experiment: Antibacterial activity against Escherichia coli ATCC 25922 assessed as inhibition of bacterial growth incubated for 24 hrs in presence of 4.5 mM K+ by broth dilution method; format: functional
Escherichia coli [6] = experiment: Bactericidal activity against Escherichia coli ATCC 25922 assessed as change in cell death associated gene expression by measuring down-regulation of glycosyltransferase family 2 (D1792_RS06385) gene expression at 4 times of MIC concentration measured after 90 mins incubation by RNA sequencing (RNA-seq) study; format: functional, organism-based
[7] = Cytotoxicity against mouse fibroblast NCTC clone 929 cells assessed as viable cells at 6.25 microg/ml incubated for 24 hrs by CCK-8 assay; format: toxicity, cell-based; conditions: NCTC clone 929 (L929) fibroblast cells, at 6.25 µg/mL, read-out: Activity
[8] = Cytotoxicity against mouse fibroblast NCTC clone 929 cells assessed as viable cells at […] microg/ml incubated for 24 hrs by CCK-8 assay; format: toxicity, cell-based; conditions: NCTC clone 929 (L929) fibroblast cells, dose 1.56 µg/ml, read-out: Activity
[9] = Cytotoxicity against human HepG2 cells assessed as viable cells at 25 microg/ml incubated for 24 hrs by CCK-8 assay; format: toxicity, cell-based; conditions: at 25 µg/mL, read-out: Activity
Staphylococcus aureus [10] = experiment: (§2) Bactericidal activity against methicillin-resistant Staphylococcus aureus NCTC 10442 assessed as down-regulation of biological processes related gene expression by measuring glutamate metabolic process (GO:0006536) at 4 times of MIC concentration measured after 90 mins incubation by RNA sequencing (RNA-seq) study; format: functional, organism-based
Escherichia coli [11] = experiment: Antibacterial activity against Escherichia coli ATCC 25922 assessed as inhibition of bacterial growth incubated for 24 hrs in presence of 19 uM Zn2+ by broth dilution method; format: functional
Cell membrane = experiment: Induction of outer membrane permeabilization in Escherichia coli ATCC 25922 assessed as increase in fluorescence intensity at 1 to 8 times MIC concentration by NPN-dye based fluorescence analysis; format: cell membranes
Lipoteichoic acid = experiment: Displacement of BODIPY-TR-cadaverine from Bacillus subtilis lipoteichoic acid (LTA) assessed as increase in fluorescence intensity by fluorescence spectrophotometric analysis
Acinetobacter baumannii = experiment: Antibacterial activity against Acinetobacter baumannii R2889 assessed as inhibition of bacterial growth incubated for 24 hrs by broth dilution method; format: functional
Staphylococcus aureus [12] = experiment: as §2, with “UMP biosynthetic” for “glutamate metabolic”, “(GO:0044,205)” for “(GO:0006536)”; format: functional, organism-based
[13] = Cytotoxicity against mouse fibroblast NCTC clone 929 cells assessed as viable cells at 25 microg/ml incubated for 24 hrs by CCK-8 assay; format: toxicity, cell-based; conditions: NCTC clone 929 (L929) fibroblast cells, at 25 µg/mL, read-out: Activity
Escherichia coli [14] = experiment: Bactericidal activity against Escherichia coli ATCC 25922 assessed as change in metabolic stress associated gene expression by measuring down-regulation of gale (DX983_RS06370) gene expression at 4 times of MIC concentration measured after 90 mins incubation; format: functional, organism-based
Staphylococcus aureus [15] = experiment: Bactericidal activity against methicillin-resistant Staphylococcus aureus NCTC 10442 assessed as bacterial killing at 8 time of MIC concentration incubated for 1 hr by time-kill assay relative to control; format: functional
Escherichia coli [16] = experiment: Antibacterial activity against Escherichia coli ATCC 25922 assessed as inhibition of bacterial growth incubated for 24 hrs in presence of 140 mM Na+ by broth dilution method; format: functional
Staphylococcus aureus [17] = experiment: Bactericidal activity against methicillin-resistant Staphylococcus aureus NCTC 10442 assessed as bacterial killing at 8 time of MIC concentration incubated for 0.5 hrs by time-kill assay; format: functional
Staphylococcus aureus [18] = experiment: Bactericidal activity against methicillin-resistant Staphylococcus aureus NCTC 10442 assessed as up regulation of alanine/aspartate and glutamate metabolism gene expression at 4 times of MIC concentration measured after 90 mins incubation by RNA sequencing (RNA-seq) study; format: functional, organism-based
Staphylococcus aureus [19] = experiment: Bactericidal activity against methicillin-resistant Staphylococcus aureus NCTC 10442 assessed as change in metabolic stress associated gene expression by measuring down-regulation of glucosaminidase domain-containing protein (atl, DX983_RS02250) gene expression at 4 times of MIC concentration measured after 90 mins incubation by RNA sequencing (RNA-seq) study; format: functional, organism-based; conditions: NTCC 10442
Escherichia coli [20] = experiment: Bactericidal activity against Escherichia coli ATCC 25922 assessed as down-regulation of intracellular sequestering of iron ion (GO:0006880) at 4 times of MIC concentration measured after 90 mins incubation by RNA sequencing (RNA-seq) study; format: functional, organism-based
Lipopolysaccharide (LPS) = experiment: Displacement of BODIPY-TR-cadaverine from Escherichia coli lipopolysaccharide (LPS) assessed as increase in fluorescence intensity at 2 times MIC measured after 30 mins by fluorescence spectrophotometric analysis; format: subcellular
Staphylococcus aureus [21] = experiment: Bactericidal activity against methicillin-resistant Staphylococcus aureus NCTC 10442 assessed as up-regulation of molecular functions related gene expression by measuring glutamate-ammonia ligase activity (GO:0004356) at 4 times of MIC concentration measured after 90 mins incubation by RNA sequencing (RNA-seq) study; format: functional, organism-based
Pseudomonas aeruginosa = experiment: Antibacterial activity against Pseudomonas aeruginosa ATCC 9027 assessed as inhibition of bacterial growth incubated for 24 hrs by broth dilution method; format: functional
Staphylococcus aureus [22] = experiment: Antibacterial activity against Staphylococcus aureus ATCC 29213 assessed as inhibition of bacterial growth incubated for 24 hrs in presence of 19 uM Zn2+ by broth dilution method; format: functional
Escherichia coli [23] = experiment: Antibacterial activity against Escherichia coli ATCC 25922 assessed as inhibition of bacterial growth incubated for 24 hrs in presence of 20 uM Fe3+ by broth dilution method; format: functional
Staphylococcus aureus [24] = experiment: Antibacterial activity against methicillin-resistant Staphylococcus aureus NCTC 10442 assessed as inhibition of bacterial growth incubated for 24 hrs in presence of 140 mM Na+ by broth dilution method; format: functional
[25] = Cytotoxicity against human HepG2 cells assessed as viable cells at 6.25 microg/ml incubated for 24 hrs by CCK-8 assay; format: toxicity, cell-based; conditions: at 6.25 µg/mL, read-out: Activity
Staphylococcus aureus [26] = experiment: Drug resistance, ratio of MIC for Staphylococcus aureus NCTC 10442 after 21 passages to MIC for Staphylococcus aureus NCTC 10442 during first exposure; format: functional
Klebsiella pneumoniae = experiment: Antibacterial activity against Klebsiella pneumoniae ATCC 10031 assessed as inhibition of bacterial growth incubated for 24 hrs in presence of 1 mM Mg2+ by broth dilution method; format: functional
Staphylococcus aureus [27] = experiment: Antibacterial activity against methicillin-resistant Staphylococcus aureus NCTC 10442 assessed as inhibition of bacterial growth incubated for 24 hrs in presence of 2.5 mM Ca2+ by broth dilution method; format: functional

Question: What does the source list for `C=C(C)[C@@H]1CCC(C)=C[C@H]1c1c(OCCCNC(=N)N)cc(CCCCC)cc1OCCCNC(=N)N`?
Answer: Activity (Staphylococcus aureus [1]): Active; MIC (Staphylococcus aureus [2]): 0.39 µg/mL; viability at 24 h, 3.125 microg/ml [3]: 111%; Activity (Staphylococcus aureus [4]): Active; MIC (Escherichia coli [5]): 1.56 µg/mL; Activity (Escherichia coli [6]): Active; viability at 24 h, 6.25 microg/ml [7]: 86.2%; viability at 24 h, 1.56 microg/ml [8]: 94%; viability at 24 h, 25 microg/ml [9]: 92.9%; Activity (Staphylococcus aureus [10]): Active; MIC (Escherichia coli [11]): 0.78 µg/mL; Activity (Cell membrane): Dose-Dependent Effect; Activity (Lipoteichoic acid): Dose-Dependent Effect; MIC (Acinetobacter baumannii): 3.12 µg/mL (≈ 6.09 µM); Activity (Staphylococcus aureus [12]): Active; viability at 24 h, 25 microg/ml [13]: 68.7%; Activity (Escherichia coli [14]): Active; inhibition (INH) (Staphylococcus aureus [15]): 100%; MIC (Escherichia coli [16]): 3.12 µg/mL; inhibition (INH) (Staphylococcus aureus [17]): 99.9%; Activity (Staphylococcus aureus [18]): Active; Activity (Staphylococcus aureus [19]): Active; Activity (Escherichia coli [20]): Active; Activity (Lipopolysaccharide (LPS)): 54%; Activity (Staphylococcus aureus [21]): Active; MIC (Pseudomonas aeruginosa): 6.25 µg/mL (≈ 12.2 µM); MIC (Staphylococcus aureus [22]): 0.78 µg/mL; MIC (Escherichia coli [23]): 1.56 µg/mL; MIC (Staphylococcus aureus [24]): 0.39 µg/mL; viability at 24 h, 6.25 microg/ml [25]: 91.3%; Ratio (Staphylococcus aureus [26]): 4; MIC (Klebsiella pneumoniae): 6.25 µg/mL; MIC (Staphylococcus aureus [27]): 0.39 µg/mL
